“And” between values parts separate entries of the source, which are not always exact repeats. Equal values may be shown once.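 All cell lines were grown in 96-well plates and treated with compound for 48 hours. Here, GI50 denotes the concentration required for 50% inhibition of growth.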 The source made the active and inactive calls. No stated cut-off is given here; in the data, active = GI50 up to about 1.1 µM and inactive = higher.

Some test systems named below: ACHN; LOX IMVI; M19-MEL; MCF7; Malme-3M; COLO 205; HOP-62; SK-OV-3; DLD-1; A549; MOLT-4; A498; SR; SNB-19; SNB-75; NCI-H226; U-251; SF-539; NCI/ADR-RES; MDA-MB-231.
Assay in all cases: NCI tumour cell line growth inhibition, 48 h

As for `COC(=O)NNc1c([N+](=O)[O-])cnn(-c2ccccc2)c1=O`, the GI50 in the assay on ACHN is 4.44 µM (inactive); with LOX IMVI it was 1.66 µM (inactive); in the assay with M19-MEL, 1.87 µM (inactive); with MCF7, 3.99 µM (inactive); in the assay on Malme-3M, 2.47 µM (inactive); with COLO 205, 2.11 µM (inactive). For the same molecule, the GI50 with HOP-62 was 7.21 µM (inactive); in the assay with SK-OV-3, 9.71 µM (inactive); in the assay with DLD-1, 2.06 µM (inactive); in the assay with A549, 12.4 µM (inactive); with MOLT-4 it was 0.815 µM (active); with A498, 27.3 µM (inactive). Further, the GI50 is 0.497 µM (active) in the assay on SR; 10.5 µM (inactive) in the assay on SNB-19; 7.48 µM (inactive) in the assay with SNB-75; 4.19 µM (inactive) with NCI-H226; 2.62 µM (inactive) in the assay on U-251; 3.29 µM (inactive) in the assay on SF-539.
As to `CCCCS(=O)(=O)Nc1ccc(Nc2c3ccccc3nc3ccccc23)c(OC)c1`, the GI50 with LOX IMVI was 1.26 µM (inactive); with M19-MEL, 4.61 µM (inactive); in the assay on MCF7, 1.13 µM (inactive); in the assay on Malme-3M, 2.21 µM (inactive); in the assay with COLO 205, 5.78 µM (inactive); with HOP-62 it was 1.86 µM (inactive). Further, the GI50 in the assay on SK-OV-3 was 5.07 µM (inactive); with DLD-1, 7.6 µM (inactive); in the assay with A549, 0.232 µM (active); in the assay with MOLT-4, 0.0718 µM (active); in the assay on A498, 2.05 µM (inactive); in the assay with SNB-19, 1.94 µM (inactive). Besides, the GI50 in the assay on SNB-75 is 1.52 µM (inactive); with NCI/ADR-RES it was 5.36 µM (inactive); in the assay with NCI-H226, 0.881 µM (active); in the assay on U-251, 0.773 µM (active); with SF-539 it was 1.08 µM (active).
In the case of `Cc1c(N(C)C)ccc2c(=O)c3cccc(CC(=O)O)c3oc12`, the GI50 in the assay with ACHN, in the assay with LOX IMVI, in the assay on M19-MEL, with MDA-MB-231, in the assay with MCF7 and in the assay on Malme-3M was > 100 µM (inactive) throughout. Besides, the GI50 with COLO 205, in the assay on HOP-62, in the assay with SK-OV-3, in the assay on DLD-1, with A549 and in the assay with MOLT-4 was > 100 µM (inactive) in each case. Moreover, the GI50 in the assay with A498 was > 81.8 µM (inactive); in the assay with SR, > 100 µM (inactive); in the assay on SNB-19 it was > 43.4 µM (inactive); with SNB-75, > 100 µM (inactive); in the assay with NCI/ADR-RES, > 100 µM (inactive); in the assay on NCI-H226, > 100 µM (inactive). In addition, the GI50 with U-251 and with SF-539 was > 100 µM (inactive) in each case.
Turning to `OC(CBr)C(O)C(O)C(O)CBr` (centres undefined), the GI50 is 8.09 µM (inactive) with ACHN; 51.6 µM (inactive) and 40.9 µM (inactive) with LOX IMVI; > 100 µM (inactive) in the assay on M19-MEL; > 100 µM (inactive) with MDA-MB-231; > 100 µM (inactive) and > 85.5 µM (inactive) with Malme-3M; > 53.6 µM (inactive) in the assay on COLO 205. Besides, the GI50 was 28.1 µM (inactive) and 28.3 µM (inactive) with HOP-62; > 55.1 µM (inactive) and > 53.1 µM (inactive) in the assay with SK-OV-3; > 100 µM (inactive) with DLD-1; 19 µM (inactive) and 36.9 µM (inactive) in the assay on A549; > 61.9 µM (inactive) in the assay with A498; > 100 µM (inactive) with SR. The GI50 in the assay with NCI-H226 was > 100 µM (inactive) and > 74.1 µM (inactive); in the assay with U-251 it was > 43.2 µM (inactive) and > 63.8 µM (inactive); with SF-539 it was 46.7 µM (inactive) and 49.8 µM (inactive).
Regarding `COc1cc(OC)c(OC)cc1/C=C\c1ccnc2ccccc12`, the GI50 in the assay with ACHN was 1.29 µM (inactive); in the assay with LOX IMVI, 0.61 µM (active); with M19-MEL, 0.851 µM (active); in the assay on MDA-MB-231 it was 0.796 µM (active); in the assay with MCF7, 0.372 µM (active); in the assay on Malme-3M, 0.7 µM (active). For the same molecule, the GI50 is 0.463 µM (active) with COLO 205; 0.582 µM (active) in the assay on HOP-62; 0.465 µM (active) in the assay with SK-OV-3; 0.944 µM (active) in the assay on DLD-1; 0.849 µM (active) with A549; 0.575 µM (active) with MOLT-4. In addition, the GI50 with A498 was 0.522 µM (active); with SR, 0.933 µM (active); in the assay with SNB-19 it was 1.01 µM (active); in the assay on SNB-75 it was 0.335 µM (active); with NCI/ADR-RES it was 0.374 µM (active); in the assay on NCI-H226, 0.977 µM (active). Moreover, the results for the GI50 in the assay with U-251 and with SF-539 were 0.628 µM (active) and 0.394 µM (active), respectively.
As for `Cc1cc(O)c2c(c1)C(=O)c1c(c(O)cc(O)c1-c1c(O)cc(O)c3c1C(=O)c1cc(C)cc(O)c1C3=O)C2=O` [SKYRIN], the GI50 in the assay on LOX IMVI is 12.9 µM (inactive); in the assay with M19-MEL it was 17.1 µM (inactive); with MCF7 it was 15 µM (inactive); in the assay on Malme-3M, 15 µM (inactive); with COLO 205 it was 24.8 µM (inactive); in the assay with HOP-62, 12.4 µM (inactive). For the same molecule, the GI50 in the assay with SK-OV-3 was 32.4 µM (inactive); in the assay on DLD-1 it was 8.75 µM (inactive); with A549, 8.87 µM (inactive); in the assay with MOLT-4 it was 8.59 µM (inactive); in the assay with A498, 14.4 µM (inactive); in the assay with SNB-19, 2.5 µM (inactive). The GI50 was 15.8 µM (inactive) in the assay with SNB-75; 35.2 µM (inactive) with NCI/ADR-RES; 3.07 µM (inactive) with NCI-H226; 8.36 µM (inactive) in the assay with U-251; 10.6 µM (inactive) with SF-539.
Turning to `CC(=O)O[C@H]1C=CC(=O)C(C)CC1C` (some centres undefined), the GI50 in the assay on ACHN is > 100 µM (inactive); with LOX IMVI, 45.8 µM (inactive); in the assay with M19-MEL, > 100 µM (inactive); in the assay on Malme-3M it was > 100 µM (inactive); in the assay with COLO 205, 55.8 µM (inactive); in the assay on HOP-62 it was > 100 µM (inactive). Further, the GI50 is > 100 µM (inactive) in the assay on SK-OV-3; 64 µM (inactive) in the assay on DLD-1; > 100 µM (inactive) in the assay with A549; > 100 µM (inactive) in the assay with MOLT-4; > 100 µM (inactive) in the assay on A498; > 100 µM (inactive) in the assay on SR. Besides, the GI50 with SNB-19, in the assay with SNB-75, in the assay on NCI-H226, with U-251 and in the assay on SF-539 was > 100 µM (inactive) each time.

For the origin of these results see ChEMBL document CHEMBL1201862, “PubChem BioAssay data set” (2004).
